Measurements from paper PMC8206078, “Identification of pyrogallol as a warhead in design of covalent inhibitors for the SARS-CoV-2 3CL protease” (Nature Communications, 2021).
pIC50: −log10 of the molar value. Where “and” joins values, the source holds several entries; their conditions need not be identical. Equal entries are not always repeated. Where two headings read alike, the source gives them in different places.

Tests used:
SARS-CoV-2 3CLpro [1] = target: T1, SARS-CoV-2 3CLpro (Severe acute respiratory syndrome coronavirus 2, UniProt P0DTD1); experiment: biochemical; type: biochemical; details: for IC50: IC50 (µM)
SARS-CoV-2 3CLpro [2] = target: T1, SARS-CoV-2 3CLpro; details: read-out: KI
[3] = target: SARS-CoV-2 3CLpro / HEK293T lysate (Severe acute respiratory syndrome coronavirus 2, UniProt P0DTD1); type: binding
SARS-CoV-2 3CLpro [4] = target: T1, SARS-CoV-2 3CLpro
[5] = read-out: Inhibition (%) @10 μM
[6] = 6.25 µM, read-out: inhibition ratio (%)
[7] = 25 µM, read-out: inhibition ratio (%)
[8] = 50 µM, read-out: inhibition ratio (%)

For `O=c1cc(-c2ccc(O)cc2)oc2cc(O)cc(O)c12` [Apigenin], the inhibition at 10 µM (SARS-CoV-2 3CLpro [1]; [5]) was -1%.
For `COc1ccc(-c2cc(=O)c3c(O)cc(O)cc3o2)cc1O` [Diosmetin], the inhibition at 10 µM (SARS-CoV-2 3CLpro [1]; [5]) was 11.3%.
In the case of `O=C1C[C@@H](c2ccc(O)c(O)c2)Oc2cc(O)cc(O)c21` [Eriodictyol], the inhibition at 10 µM (SARS-CoV-2 3CLpro [1]; [5]) was 34.5%.
`COc1ccc(-c2coc3cc(O)ccc3c2=O)cc1` [Formononetin] was tested, and the inhibition at 10 µM (SARS-CoV-2 3CLpro [1]; [5]) was 16%.
With `O=c1c(-c2ccc(O)cc2)coc2cc(O)cc(O)c12` [Genistein] the inhibition at 10 µM (SARS-CoV-2 3CLpro [1]; [5]) was 15%.
Compound `O=c1c(-c2ccc(O)cc2)coc2cc(O[C@@H]3O[C@H](CO)[C@@H](O)[C@H](O)[C@H]3O)cc(O)c12` [Genistin] has an inhibition at 10 µM (SARS-CoV-2 3CLpro [1]; [5]) of 25.5%.
Compound `COc1ccc([C@@H]2CC(=O)c3c(O)cc(O)cc3O2)cc1O` [Hesperetin] has an inhibition at 10 µM (SARS-CoV-2 3CLpro [1]; [5]) of 13.8%.
Compound `COc1cc(-c2oc3cc(O)cc(O)c3c(=O)c2O)ccc1O` [Isorhamnetin] has an inhibition at 10 µM (SARS-CoV-2 3CLpro [1]; [5]) of -2.6%.
Compound `COc1ccc(-c2oc3cc(O)cc(O)c3c(=O)c2O)cc1` [Kaempferide] has an inhibition at 10 µM (SARS-CoV-2 3CLpro [1]; [5]) of 8.1%.
`O=c1cc(-c2ccc(O)c(O)c2)oc2cc(O)cc(O)c12` [Luteolin] was tested, and the “Inhibition (%) @10 μM” value (SARS-CoV-2 3CLpro [1]; 10 µM) was -4.1%.
In the case of `O=c1c(O)c(-c2ccc(O)c(O)c2)oc2cc(O)cc(O)c12` [Quercetin], the inhibition at 10 µM (SARS-CoV-2 3CLpro [1]; [5]) was 41.3%.
In the case of `O=c1c(-c2ccc(O[C@@H]3O[C@H](CO)[C@@H](O)[C@H](O)[C@H]3O)cc2)coc2cc(O)cc(O)c12` [Sophoricoside], the inhibition at 10 µM (SARS-CoV-2 3CLpro [1]; [5]) was 10%.
With `O=C1c2c(O)cc(O)cc2OC(c2ccc(O)c(O)c2)C1O` (stereo not shown) [Taxifolin] the inhibition at 10 µM (SARS-CoV-2 3CLpro [1]; [5]) was 28%.
Compound `COc1cc(O)c2c(=O)c(O)c(-c3cc(O)c(O)c(O)c3)oc2c1` [compound 3, 7-O-methyl myricetin] has an IC50 (SARS-CoV-2 3CLpro [1]) of 0.31 µM, an inhibition at 0.15625 µM (SARS-CoV-2 3CLpro [1]; read-out: inhibition ratio (%)) of 28.3% and an inhibition at 0.3125 µM (SARS-CoV-2 3CLpro [1]; read-out: inhibition ratio (%)) of 43.1%. The inhibition at 5 µM (SARS-CoV-2 3CLpro [1]; read-out: inhibition ratio (%)) was 96.8%, the inhibition at 10 µM (SARS-CoV-2 3CLpro [1]; read-out: inhibition ratio (%)) was 98.5% and the inhibition at […] (SARS-CoV-2 3CLpro [1]; read-out: inhibition ratio (%)) was 89.4% and 96.2%.
In the case of `O=c1c(O)c(-c2cc(O)c(O)c(O)c2)oc2cc(OCC3CCCC3)cc(O)c12` [compound 6, 7-O-cyclopentylmethyl-myricetin], the pIC50 (SARS-CoV-2 3CLpro [1]; read-out: IC50) was 5.65 and 5.64 and 5.55 and 5.61.
With `COc1cc(O)c2c(c1)O[C@H](c1cc(O)c(O)c(O)c1)[C@@H](O)C2=O` [compound 7, 7-O-methyl dihydromyricetin] the IC50 (SARS-CoV-2 3CLpro [1]) was 270 nM (2×) and 240 nM, the inhibition at 0.0488281 µM (SARS-CoV-2 3CLpro [1]; read-out: inhibition ratio (%)) was 8.15% and the inhibition at 0.0976562 µM (SARS-CoV-2 3CLpro [1]; read-out: inhibition ratio (%)) was 25.7%. It also gave an inhibition at 0.390625 µM (SARS-CoV-2 3CLpro [1]; read-out: inhibition ratio (%)) of 54.6%, an inhibition at 0.78125 µM (SARS-CoV-2 3CLpro [1]; read-out: inhibition ratio (%)) of 84.2% and an inhibition at 1.5625 µM (SARS-CoV-2 3CLpro [1]; read-out: inhibition ratio (%)) of 97.1%. The inhibition at 3.125 µM (SARS-CoV-2 3CLpro [1]; read-out: inhibition ratio (%)) was 94.4%, the inhibition at 6.25 µM (SARS-CoV-2 3CLpro [1]; read-out: inhibition ratio (%)) was 98.2% and the inhibition at 25 µM (SARS-CoV-2 3CLpro [1]; read-out: inhibition ratio (%)) was 94.6%. For the same compound, the inhibition at 50 µM (SARS-CoV-2 3CLpro [1]; read-out: inhibition ratio (%)) was 95.6% and the inhibition at […] (SARS-CoV-2 3CLpro [1]; read-out: inhibition ratio (%)) was 36.2% and 99.3%.
In the case of `O=c1c(O)c(-c2cc(O)c(O)c(O)c2)oc2cc(OP(=O)(Oc3ccccc3)Oc3ccccc3)cc(O)c12` [compound 9], the inhibition at 0.78125 µM (SARS-CoV-2 3CLpro [1]; 0.78125 µM, read-out: inhibition ratio (%)) was 10.1%, the inhibition at 3.125 µM (SARS-CoV-2 3CLpro [1]; 3.125 µM, read-out: inhibition ratio (%)) was 57.7% and the inhibition at 6.25 µM (SARS-CoV-2 3CLpro [1]; [6]) was 78.1%. For the same compound, the inhibition at 25 µM (SARS-CoV-2 3CLpro [1]; [7]) was 96% and the inhibition at 50 µM (SARS-CoV-2 3CLpro [1]; [8]) was 99.4%.
For `O=C1c2c(O)cc(OP(=O)(Oc3ccccc3)Oc3ccccc3)cc2O[C@H](c2cc(O)c(O)c(O)c2)[C@H]1O` [compound 10], the inhibition at 6.25 µM (SARS-CoV-2 3CLpro [1]; [6]) was 81.5%, the inhibition at 25 µM (SARS-CoV-2 3CLpro [1]; [7]) was 98.9% and the inhibition at 50 µM (SARS-CoV-2 3CLpro [1]; [8]) was 98.6%. For the same compound, the inhibition at 100 µM (SARS-CoV-2 3CLpro [1]; 100 µM, read-out: inhibition ratio (%)) was 99.4% and the inhibition at 200 µM (SARS-CoV-2 3CLpro [1]; 200 µM, read-out: inhibition ratio (%)) was 99.6%.
In the case of `O=C1c2c(O)cc(O)cc2O[C@H](c2cc(O)c(O)c(O)c2)[C@H]1O` [dihydromyricetin], the “Inhibition (%) @10 μM” value (SARS-CoV-2 3CLpro [1]; 10 µM) was greater than 90%, the inhibition at 10 µM (SARS-CoV-2 3CLpro [1]; [5]) was 93.8% and the inhibition at 0.3125 µM (SARS-CoV-2 3CLpro [1]; read-out: inhibition ratio (%)) was 13%. The inhibition at 0.390625 µM (SARS-CoV-2 3CLpro [1]; read-out: inhibition ratio (%)) was 15%, the inhibition at 0.625 µM (SARS-CoV-2 3CLpro [1]; read-out: inhibition ratio (%)) was 24.1% and the inhibition at 0.78125 µM (SARS-CoV-2 3CLpro [1]; read-out: inhibition ratio (%)) was 39.3%. For the same compound, the inhibition at 1.5625 µM (SARS-CoV-2 3CLpro [1]; read-out: inhibition ratio (%)) was 58.9%, the inhibition at 3.125 µM (SARS-CoV-2 3CLpro [1]; read-out: inhibition ratio (%)) was 82.7% and the inhibition at 5 µM (SARS-CoV-2 3CLpro [1]; read-out: inhibition ratio (%)) was 87.5%. It also gave an inhibition at 6.25 µM (SARS-CoV-2 3CLpro [1]; read-out: inhibition ratio (%)) of 95%, an inhibition at 10 µM (SARS-CoV-2 3CLpro [1]; read-out: inhibition ratio (%)) of 97.8% and an inhibition at 20 µM (SARS-CoV-2 3CLpro [1]; read-out: inhibition ratio (%)) of 99.5%. For the same compound, the inhibition at 40 µM (SARS-CoV-2 3CLpro [1]; read-out: inhibition ratio (%)) was 98.8% and the inhibition at […] (SARS-CoV-2 3CLpro [1]; read-out: inhibition ratio (%)) was 45.2% and 85% and 98.5%.
In the case of `O=c1c(O)c(-c2cc(O)c(O)c(O)c2)oc2cc(O)cc(O)c12` [myricetin, 3,5,7,3′,4′,5′-hexahydroxyflavone], the KI (inactivation) (SARS-CoV-2 3CLpro [2]) was 16.9 µM and 15.2 µM and 15 µM, the “Inhibition (%) @10 μM” value (SARS-CoV-2 3CLpro [1]; 10 µM) was greater than 90% and the inhibition at 10 µM (SARS-CoV-2 3CLpro [1]; [5]) was 97.6%. The inhibition at 0.3125 µM (SARS-CoV-2 3CLpro [1]; read-out: inhibition ratio (%)) was 27.5%, the inhibition at 0.625 µM (SARS-CoV-2 3CLpro [1]; read-out: inhibition ratio (%)) was 44.1% and the inhibition at 5 µM (SARS-CoV-2 3CLpro [1]; read-out: inhibition ratio (%)) was 96.1%. It also gave an inhibition at 10 µM (SARS-CoV-2 3CLpro [1]; read-out: inhibition ratio (%)) of 98.2%, an inhibition at 20 µM (SARS-CoV-2 3CLpro [1]; read-out: inhibition ratio (%)) of 97.9% and an inhibition at 40 µM (SARS-CoV-2 3CLpro [1]; read-out: inhibition ratio (%)) of 98.8%. The inhibition at […] (SARS-CoV-2 3CLpro [1]; read-out: inhibition ratio (%)) was 65.6% and 85.5%, the “fluorescent labeling in mixture of HEK293T lysate and recombinant 3CLpro” value [3] was “only significantly reduced the fluorescent labeling of the protease” and the “fluorescent labeling of recombinant SARS-CoV-2 3CLpro by maleimide probe” value [3] was “completely block”. For the same compound, the “increase in molecular weight of the protease (covalent labeling)” value (SARS-CoV-2 3CLpro [4]) was 316 Da.
In the case of (+)-Catechin, the “Inhibition (%) @10 μM” value (SARS-CoV-2 3CLpro [1]) was 14.0%.
With Biochanin A the “Inhibition (%) @10 μM” value (SARS-CoV-2 3CLpro [1]) was 5.0%.
